Laboratory results published in publication PMC7766225, “Structure-Based Discovery and Bioactivity Evaluation of Novel Aurora-A Kinase Inhibitors as Anticancer Agents via Docking-Based Comparative Intermolecular Contacts Analysis (dbCICA)” (Molecules, 2020).

How the values were obtained:
Aurora-A kinase [1] = biological target: T1, Aurora-A kinase (Homo sapiens, UniProt O14965); conditions: Table S1, ChEMBL; ref Mortlock, et al., 2007; cited from earlier work
T1 construct: purchased Invitrogen (Carlsbad, CA, USA)
T1 sequence (O14965 1-403): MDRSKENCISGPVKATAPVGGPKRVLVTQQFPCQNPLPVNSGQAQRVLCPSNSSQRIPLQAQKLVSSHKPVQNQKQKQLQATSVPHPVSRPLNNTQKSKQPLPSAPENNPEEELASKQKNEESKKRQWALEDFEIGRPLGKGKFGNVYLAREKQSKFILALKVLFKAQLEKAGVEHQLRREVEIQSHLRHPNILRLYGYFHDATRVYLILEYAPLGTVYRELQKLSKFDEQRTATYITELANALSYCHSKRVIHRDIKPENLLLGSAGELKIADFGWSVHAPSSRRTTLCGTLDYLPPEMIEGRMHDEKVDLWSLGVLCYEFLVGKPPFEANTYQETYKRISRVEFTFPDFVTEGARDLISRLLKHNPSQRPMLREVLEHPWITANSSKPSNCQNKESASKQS

Aurora-A kinase [2] = biological target: T1, Aurora-A kinase; assay: FRET-based Z'-LYTE kinase enzyme inhibition assay; format: biochemical; conditions: 10 µM, duplicates, Z'-LYTE
Protocol: This bioassay was conducted using Z′-LYTE® kinase assay (Invitrogen, Carlsbad, CA, USA) [68, 69]. This biochemical assay depends on fluorescence emission as detection method utilizing a synthetic fluorescence resonance energy transfer (FRET) peptide with two fluorophores: coumarin that work as donor and fluorescein as acceptor [69]. Each hit or compound was dissolved in DMSO to form 10 mM stock solution. Hits were screened at 10 μM concentration. The bioassay was performed in black 384-well plate. For each assay, 100 nL of tested compound stock solution (10 mM) was mixed with 2.4 μL kinase buffer, 5 μL (peptide substrate/Aurora-A Kinase) mixture, and 2.5 μL ATP solution.
The tests were conducted in duplicates.

Row | % Inhibition at 10 µM (Aurora-A kinase [2]) | Compound | Ki (Aurora-A kinase [1])
1 | 20% | COc1ccc(-c2oc3ccc(C)cc3c(=O)c2O)cc1 [Hit 80] | –
2 | 7% | CC(Cc1ccccc1)=NNS(=O)(=O)c1ccc([N+](=O)[O-])cc1 [Hit 83] | –
3 | 12% | CC(=NNS(=O)(=O)c1ccc([N+](=O)[O-])cc1)c1ccc(C)cc1 [Hit 86] | –
4 | -4% | O=C(NCCc1ccccc1)c1ccc([N+](=O)[O-])cc1 [Hit 87] | –
5 | -2% | COc1ccc(C(=O)OCc2ccc3c(c2)OCO3)cc1 [Hit 90] | –
6 | 14% | COc1ccc2c(ccc[n+]2CC(=O)c2ccc(SC)cc2)c1 [Hit 93] | –
7 | -4% | CCOC(=O)C(=Cc1cc(C)c(OC(C)=O)c(OC)c1)NC(=O)c1ccccc1 [Hit 97] | –
8 | -5% | COc1ccc(CCc2ccc3cc(OC)ccc3n2)cc1 [Hit 98] | –
9 | 5% | COc1ccc(C(=O)OCc2ccc3c(c2)OCO3)cc1 [Hit 99] | –
10 | 12% | CC(=O)Nc1ccc(S(=O)(=O)NN=Cc2cc(Cl)ccc2O)cc1 [Hit 103] | –
11 | 23% | NC[C@@H](O)c1ccc(Nc2ccnc3cc(Cl)ccc23)cc1 [Hit 104] | –
12 | 6% | Cc1ccc[n+](CC(=O)c2ccc([N+](=O)[O-])cc2)c1 [Hit 106] | –
13 | -142% | COc1ccc(C(=O)Oc2ccc(C=O)cc2OC)cc1 [Hit 109] | –
14 | 3% | CCOc1ccc(N=C(C)Nc2ccc(OCC)cc2)cc1 [Hit 110] | –
15 | 8% | COc1ccc(C(=O)C=Cc2ccc3c(c2)OCO3)cc1 [Hit 113] | –
16 | 4% | COc1ccc(C(=O)CCCCC(=O)c2ccc(OC)cc2)cc1 [Hit 114] | –

Row | % Inhibition at 10 µM (Aurora-A kinase [2]) | Compound | Ki (Aurora-A kinase [1])
17 | -3% | CC[C@@H](C(=O)c1ccc(OC)cc1)c1ccc(OC)cc1 [Hit 119] | –
18 | -2% | COc1ccc(C[N+](C)(C)Cc2ccc(OC)cc2)cc1 [Hit 120] | –
19 | -2% | COc1ccc(C=Cc2ccc3ccccc3n2)cc1 [Hit 121] | –
20 | -2% | COc1cccc(C(N)CCc2cc(OC)c(OC)c(OC)c2)c1 (stereo not shown) [Hit 124] | –
21 | -1% | CCOc1ccc(NC(=O)Nc2ccc(OCC)cc2)cc1 [Hit 125] | –
22 | -2% | CCC(=Cc1ccc(OC)cc1)C(=O)c1ccc(OC)cc1 [Hit 126] | –
23 | 0% | COc1ccc(OC(=O)c2ccc(Cl)cc2)cc1 [Hit 127] | –
24 | 3% | COc1ccc(C2OC(c3ccc(OC)cc3)c3ccccc32)cc1 (stereo not shown) [Hit 133] | –
25 | 8% | COc1ccc(N=Nc2ccc(OC)cc2)cc1 [Hit 134] | –
26 | 5% | O=[N+]([O-])c1ccc(S(=O)(=O)NN=Cc2ccco2)cc1 [Hit 136] | –
27 | -30% | O=C(Oc1ccc(Cl)cc1Cl)c1ccc([N+](=O)[O-])cc1 [Hit 137] | –
28 | -1% | COc1ccc(NC(=O)c2ccc(Cl)cc2)cc1 [Hit 138] | –
29 | -3% | O=[N+]([O-])c1ccc(COc2ccc(Cl)cc2)cc1 [Hit 142] | –
30 | -3% | COc1ccc(N=[N+]([O-])c2ccc(OC)cc2)cc1 [Hit 148] | –
31 | -1% | COc1ccc(C(=O)C(O)c2ccc(OC)cc2)cc1 (stereo not shown) [Hit 149] | –
32 | -7% | Oc1ccc(/C=C/c2ccc(Cl)cc2)cc1 [Hit 151] | –

The next lines start with the compound.

Row | Compound | % Inhibition at 10 µM (Aurora-A kinase [2]) | Ki (Aurora-A kinase [1])
33 | COc1cc2c(Nc3cc(CC(=O)Nc4ccccc4)[nH]n3)ncnc2cc1OCCCN1CCC(CO)CC1 [Compound 1] | – | 1600 nM
34 | COc1cc2c(Nc3cc(CC(=O)Nc4ccccc4F)[nH]n3)ncnc2cc1OCCCN1CCC(CO)CC1 [Compound 2] | – | 1400 nM
35 | COc1cc2c(Nc3cc(CC(=O)Nc4ccc(F)cc4)[nH]n3)ncnc2cc1OCCCN1CCC(CO)CC1 [Compound 4] | – | 2000 nM
36 | COc1cc2c(Nc3cc(CC(=O)Nc4cccc(F)c4F)[nH]n3)ncnc2cc1OCCCN1CCC(CO)CC1 [Compound 5] | – | 410 nM
37 | COc1cc2c(Nc3cc(CC(=O)Nc4cc(F)cc(F)c4)[nH]n3)ncnc2cc1OCCCN1CCC(CO)CC1 [Compound 6] | – | 230 nM
38 | COc1cc2c(Nc3cc(CC(=O)Nc4cccc(Cl)c4)[nH]n3)ncnc2cc1OCCCN1CCC(CO)CC1 [Compound 7] | – | 450 nM
39 | COc1cc2c(Nc3cc(CC(=O)Nc4cccc(C#N)c4)[nH]n3)ncnc2cc1OCCCN1CCC(CO)CC1 [Compound 8] | – | 2600 nM
40 | COc1cc2c(Nc3cc(CC(=O)Nc4cccc(O)c4)[nH]n3)ncnc2cc1OCCCN1CCC(CO)CC1 [Compound 9] | – | 4000 nM
41 | COc1cccc(NC(=O)Cc2cc(Nc3ncnc4cc(OCCCN5CCC(CO)CC5)c(OC)cc34)n[nH]2)c1 [Compound 10] | – | 1900 nM
42 | COc1cc2c(Nc3cc(CC(=O)Nc4cccc(C(F)(F)F)c4)[nH]n3)ncnc2cc1OCCCN1CCC(CO)CC1 [Compound 11] | – | 510 nM
43 | COc1cc2c(Nc3cc(CC(=O)Nc4cccc(F)c4F)[nH]n3)ncnc2cc1OCCCN1CCN(CCO)CC1 [Compound 12] | – | 55 nM
44 | COc1cc2c(Nc3cc(CC(=O)Nc4cccc(F)c4F)[nH]n3)ncnc2cc1OCCCN1CCC(O)CC1 [Compound 13] | – | 220 nM
45 | COc1cc2c(Nc3cc(CC(=O)Nc4cccc(F)c4F)[nH]n3)ncnc2cc1OCCCN1CCC(CCO)CC1 [Compound 14] | – | 280 nM
46 | COc1cc2c(Nc3cc(CC(=O)Nc4cccc(F)c4)[nH]n3)ncnc2cc1OCCCNCCO [Compound 15] | – | 690 nM
47 | COc1cc2c(Nc3cc(CC(=O)Nc4cccc(F)c4)[nH]n3)ncnc2cc1OCCCN(C)CCO [Compound 16] | – | 65 nM
48 | CCN(CCO)CCCOc1cc2ncnc(Nc3cc(CC(=O)Nc4cccc(F)c4)[nH]n3)c2cc1OC [Compound 17] | – | 190 nM
49 | CCCN(CCO)CCCOc1cc2ncnc(Nc3cc(CC(=O)Nc4cccc(F)c4)[nH]n3)c2cc1OC [Compound 18] | – | 220 nM
50 | CCCCN[C@@H](c1ccc(OC)cc1)[C@H](O)c1ccc(OC)cc1 [Hit 81] | 3% | –
51 | COc1ccc(/C=N/N=C/c2ccc(OC)cc2)cc1 [Hit 82] | 5% | –
52 | COc1ccc(C=NNS(=O)(=O)c2ccc(NC(C)=O)cc2)cc1 [Hit 89] | 2% | –
53 | CCNC(Cc1ccc(OC)cc1)c1ccc(OC)cc1 (stereo not shown) [Hit 91] | -2% | –
54 | COc1ccc(C(Cc2ccc(Cl)cc2)NCCO)cc1 (stereo not shown) [Hit 92] | 3% | –
55 | COc1ccc(C(=O)OCc2ccc3c(c2)OCO3)cc1 [Hit 94] | -2% | –
56 | COc1ccc(CC(C)NCC(O)c2ccc(O)c(O)c2)cc1 (stereo not shown) [Hit 95] | 30% | –
57 | COc1cccc(/C=C/C(=O)/C=C/C=C/c2ccccc2)c1 [Hit 96] | 0% | –
58 | COc1ccc(CNCCNCc2ccc(OC)cc2)cc1 [Hit 100] | 7% | –
59 | COc1ccc(NC(=O)CC(=O)Nc2ccc(OC)cc2)cc1 [Hit 101] | 6% | –

Row | Compound | % Inhibition at 10 µM (Aurora-A kinase [2]) | Ki (Aurora-A kinase [1])
60 | CC(=O)Nc1ccc(S(=O)(=O)NN=Cc2ccc(C)cc2)cc1 [Hit 102] | 6% | –
61 | COc1ccc(C(=O)[C@H](CN(C)C)c2ccc(OC)cc2)cc1 [Hit 105] | 1% | –
62 | CC(Cc1ccccc1)NCC(=O)c1ccc(O)c(O)c1 (stereo not shown) [Hit 107] | 25% | –
63 | COc1ccc(NC(=O)c2ccc(Cl)cc2Cl)cc1 [Hit 108] | -7% | –
64 | C[n+]1c(/C=C/c2ccc([N+](=O)[O-])cc2)oc2ccccc21 [Hit 111] | 1% | –
65 | COc1ccc(CCCCCCc2ccc(OC)cc2)cc1 [Hit 115] | -1% | –
66 | NOS(=O)c1ccc(N=CC=Cc2ccccc2)cc1 (stereo not shown) [Hit 116] | 21% | –
67 | COc1ccc(CC(=O)c2ccc(OC)c(OC)c2)cc1OC [Hit 117] | 7% | –
68 | O=[N+]([O-])c1cccc(S(=O)(=O)Nc2ccc(Cl)cc2)c1 [Hit 118] | 7% | –
69 | COc1ccc(CCC(N)c2ccc(OC)cc2)cc1 (stereo not shown) [Hit 122] | -1% | –
70 | COc1ccc(C=Cc2ccc(Cl)cc2)cc1 [Hit 128] | -5% | –
71 | COc1ccc(C=NCCN=Cc2ccc(OC)cc2)cc1 [Hit 129] | 3% | –
72 | O=C(OCC=Cc1ccccc1)c1ccc([N+](=O)[O-])cc1 [Hit 131] | 3% | –
73 | Cc1ccc(S(=O)(=O)Nc2ccc3cc([N+](=O)[O-])ccc3c2[N+](=O)[O-])cc1 [Hit 132] | 22% | –
74 | COc1ccc(/N=N/c2ccc(O)cc2)cc1 [Hit 135] | 7% | –
75 | O=C(NC(Cc1ccc2c(c1)OCO2)C(=O)O)c1ccccc1 (stereo not shown) [Hit 139] | 6% | –
76 | COc1ccc([C@@H](O)Cc2ccc(Cl)cc2)cc1 [Hit 140] | -7% | –
77 | CN(C)CC(O)c1ccc(C=Cc2ccc(Cl)cc2)cc1 (stereo not shown) [Hit 143] | -72% | –
78 | CCCCNC(C(=O)c1ccc(OC)cc1)c1ccc(OC)cc1 (stereo not shown) [Hit 144] | 0% | –
79 | COc1ccc(C(N)C(O)c2ccc(OC)cc2)cc1 (stereo not shown) [Hit 145] | 0% | –
80 | Cc1cc[n+](CC(=O)c2ccc([N+](=O)[O-])cc2)cc1 [Hit 146] | 4% | –
81 | O=C(CNCCCc1ccccc1)c1ccc(O)c(O)c1 [Hit 147] | 14% | –
82 | COc1ccc(CC(=O)c2ccc(OC)cc2)cc1 [Hit 150] | -3% | –
83 | COc1cccc(CC(C)NCC(O)c2ccc(O)c(O)c2)c1 (stereo not shown) [Hit 152] | 1% | –
84 | O=C(CCCc1ccc([N+](=O)[O-])cc1)c1ccccc1 [Hit 153] | -6% | –
85 | CNC(Cc1ccc(OC)cc1)c1ccc(OC)cc1 (stereo not shown) [Hit 154] | -2% | –
